From the supplement of paper PMC11003180

Experiments:
Test in all cases: drug sensitivity score (DSS) from 5-dose viability curve (DSS (area-based score, 0 = no response)); higher = more sensitive (stronger viability inhibition); extreme values may be limits of the assay
[1] = test system: MDCK wild-type + doxycycline; details: doxycycline: 10 ng/mL; 72 h
Outline: (§1)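 Parental MDCK cells and MDCK cells with doxycycline-inducible p60AmotL2, both given doxycycline at 10 ng/mL in the medium before plating, were dispensed at 2000 cells/well onto pre-spotted 384-well plates. The plates held an oncology library of 528 drugs at five doses (1-10,000 nM) and were incubated 72 h at 37 °C. Viability was read as CellTiter-Glo luminescence and scaled per plate between vehicle and positive controls. Drug sensitivity scores came from dose-response curve fits in the Breeze pipeline.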

[2] = test system: MDCK p60AmotL2-inducible + doxycycline (p60AmotL2 expressing); details: doxycycline: 10 ng/mL; 72 h
Outline: as §1

[3] = test system: MDCK wild-type - doxycycline; details: doxycycline: none; 72 h
Outline: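 For 72 h at 37 °C, parental MDCK cells (no doxycycline, 2000 cells/well) were incubated on 384-well plates pre-spotted with 528 oncology drugs at five doses from 1 to 10,000 nM. CellTiter-Glo luminescence served as the viability readout, scaled per plate between vehicle and positive controls. The Breeze pipeline then fitted dose-response curves to yield drug sensitivity scores.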

Structure (SMILES) | drug sensitivity score [1] | drug sensitivity score [2] | drug sensitivity score [3]
CC[C@]1(O)C[C@H]2CN(CCc3c([nH]c4ccccc34)[C@@](C(=O)OC)(c3cc4c(cc3OC)N(C=O)[C@H]3[C@@](O)(C(=O)OC)[C@H](OC(C)=O)[C@]5(CC)C=CCN6CC[C@]43[C@@H]65)C2)C1 [Vincristine] | 20.3 | 23.1 | 20.2
CC(C)n1nc(-c2ccc3oc(N)nc3c2)c2c(N)ncnc21 [Sapanisertib] | 9.8 | 13.4 | 8.1
Nc1cccc2c1C(=O)N(C1CCC(=O)NC1=O)C2=O (stereo unspecified) [Pomalidomide] | 0 | 0 | 0
CO[C@@H](C)Cn1c(=O)n(C)c2cnc3ccc(-c4cncc(C(C)(C)O)c4)cc3c21 | 9.1 | 12.8 | 8.2
Cn1cc(C[C@@H](N)C(=O)O)c2ccccc21 [1-methyl-D-tryptophan] | 0 | 0 | 0
COc1cc(C(=O)O)ccc1NC(=O)[C@@H]1N[C@@H](CC(C)(C)C)[C@](C#N)(c2ccc(Cl)cc2F)[C@H]1c1cccc(Cl)c1F [Idasanutlin] | 12.6 | 16.2 | 8.4
C=CCN(/C=C1/C(=O)O[C@H](COC)[C@@]2(C)C1=C(O)C(=O)C1=C2[C@H](OC(C)=O)C[C@]2(C)C(=O)CC[C@@H]12)CC=C [Sonolisib] | 0 | 0 | 0
Cn1nccc1Nc1nccc(-c2ccn([C@H](CO)c3ccc(Cl)c(F)c3)c(=O)c2)n1 [Ravoxertinib] | 0 | 0.2 | 0
CCOc1cc2ncc(C#N)c(Nc3ccc(OCc4ccccn4)c(Cl)c3)c2cc1NC(=O)/C=C/CN(C)C [Neratinib] | 7.5 | 16.8 | 5.1
CN(C)CC#Cc1ccc(OCCCc2sc(N3CCc4cccc(C(=O)Nc5nc6ccccc6s5)c4C3)nc2C(=O)O)c(F)c1 | 0 | 0 | 0
O[C@H]1CC[C@H](Nc2ncc3nc(Nc4c(F)cc(F)cc4F)n([C@H]4CCOC4)c3n2)CC1 [Tanzisertib] | 0.1 | 0.9 | 0
Cc1nc(NC(=O)N2CCC[C@H]2C(N)=O)sc1-c1ccnc(C(C)(C)C(F)(F)F)c1 [Alpelisib] | 0 | 1.6 | 0.7
NC(=S)N/N=C/c1ncccc1N [Triapine] | 3.6 | 3.9 | 4.7
C/C=C1\NC(=O)[C@H]2CSSCC/C=C/[C@H](CC(=O)N[C@H](C(C)C)C(=O)N2)OC(=O)[C@H](C(C)C)NC1=O [Romidepsin] | 19.7 | 24.9 | 18.1
COc1ccc(-c2ccc3c(N4CCOC[C@@H]4C)nc(N4CCOC[C@@H]4C)nc3n2)cc1CO [AZD8055] | 17.8 | 22.5 | 14.9
N#CCNC(=O)c1ccc(-c2ccnc(Nc3ccc(N4CCOCC4)cc3)n2)cc1 [Momelotinib] | 2.7 | 3.3 | 3.7
N[C@@H]1CCCN(c2c(/C=C3\SC(=O)NC3=O)cccc2-c2ccccc2)C1 [AZD1208] | 0 | 1 | 0
COc1ccc(Cn2ccc3ccc(C(=O)NO)cc32)cc1 | 3.1 | 2.1 | 0
CCc1nc(C(N)=O)c(Nc2ccc(N3CCC(N4CCN(C)CC4)CC3)c(OC)c2)nc1NC1CCOCC1 [Gilteritinib] | 0.1 | 1 | 0.9
C[C@]1(c2nc3c(C(N)=O)cccc3[nH]2)CCCN1 [Veliparib] | 0 | 0 | 0
CO[C@H](C(=O)[C@@H](O)[C@@H](C)O)[C@@H]1Cc2cc3cc(O[C@H]4C[C@@H](O[C@@H]5C[C@@H](O)[C@H](O)[C@@H](C)O5)[C@H](O)[C@@H](C)O4)c(C)c(O)c3c(O)c2C(=O)[C@H]1O[C@H]1C[C@@H](O[C@@H]2C[C@@H](O)[C@@H](O[C@@H]3C[C@](C)(O)[C@H](O)[C@@H](C)O3)[C@@H](C)O2)[C@H](O)[C@@H](C)O1 [Plicamycin] | 11.3 | 14.1 | 10.4

Structure (SMILES) | drug sensitivity score [1] | drug sensitivity score [2] | drug sensitivity score [3]
Cc1c(-c2ccc(N3CCc4cccc(C(=O)Nc5nc6ccccc6s5)c4C3)nc2C(=O)O)cnn1CC12CC3CC(CC(C3)C1)C2 | 0 | 0 | 0
C=C1C[C@@H]2[C@H](CC[C@]3(C)C(=O)CC[C@@H]23)[C@@]2(C)C=CC(=O)C=C12 [Exemestane] | 0 | 0 | 0
CC[C@H](CO)Nc1nc(NCc2ccccc2)c2ncn(C(C)C)c2n1 [Seliciclib] | 1.2 | 2.4 | 0
C[C@@H]1C[C@H]2[C@@H]3CCC4=CC(=O)C=C[C@]4(C)[C@@]3(F)[C@@H](O)C[C@]2(C)[C@@]1(O)C(=O)CO [Dexamethasone] | 0 | 0 | 0
Cn1cc(-c2ccc(F)c(C(F)(F)F)c2)nc1C1CCN(c2ncnc3[nH]ncc23)CC1 | 0 | 3 | 0
C=CC(=O)N1CCC[C@@H](n2nc(-c3ccc(Oc4ccccc4)cc3)c3c(N)ncnc32)C1 [Ibrutinib] | 3.8 | 9.7 | 4.5
CNC(=O)c1cc(COc2nnc(Nc3ccc(Cl)cc3)c3ccoc23)ccn1 [Telatinib] | 0 | 0 | 0
Cn1c(=O)n(-c2ccc(C(C)(C)C#N)cc2)c2c3cc(-c4cnc5ccccc5c4)ccc3ncc21 [Dactolisib] | 10.9 | 17.7 | 9.2
CC1=C2C[C@H]3[C@@H](CC[C@@H]4C[C@H](NS(C)(=O)=O)CC[C@@]43C)[C@@H]2CC[C@@]2(C1)O[C@@H]1C[C@H](C)CN[C@H]1[C@H]2C [Saridegib] | 0 | 0.8 | 0
COc1cc([C@@H]2c3cc4c(cc3[C@@H](O[C@@H]3O[C@@H]5CO[C@@H](c6cccs6)O[C@H]5[C@H](O)[C@H]3O)[C@H]3COC(=O)[C@H]23)OCO4)cc(OC)c1O [Teniposide] | 1.5 | 2.7 | 0.9
CCC/C=C/C=C/C(=O)O[C@H]1/C(=C/C(=O)OC)C[C@H]2C[C@H]([C@@H](C)O)OC(=O)C[C@H](O)C[C@@H]3C[C@H](OC(C)=O)C(C)(C)[C@](O)(C[C@@H]4C/C(=C/C(=O)OC)C[C@H](/C=C/C(C)(C)[C@]1(O)O2)O4)O3 [Bryostatin 1] | 0 | 0 | 0
Oc1nc(-c2ccc(C(F)(F)F)cc2)nc2c1CSCC2 [XAV-939] | 0 | 0 | 0
CN(C)CCOc1ccc(/C(=C(/CCCl)c2ccccc2)c2ccccc2)cc1 [Toremifene] | 3.6 | 4.6 | 0
N#Cc1ccc2[nH]c(O)c(-c3ccc(CN4CCOCC4)cn3)c2c1 [AZD-1080] | 0 | 0 | 0
CNC(=O)c1ccc(N2C(=S)N(c3ccc(C#N)c(C(F)(F)F)c3)C(=O)C2(C)C)cc1F [Enzalutamide] | 0 | 0 | 0
CC(C)Cn1cnc2c(N)nc3ccccc3c21 [Imiquimod] | 0 | 0.3 | 0
CC(C)NC[C@@H](C(=O)N1CCN(c2ncnc3c2[C@H](C)C[C@H]3O)CC1)c1ccc(Cl)cc1 [Ipatasertib] | 0.1 | 2.2 | 0
CCOC(=O)C1=CCCC[C@H]1S(=O)(=O)Nc1ccc(F)cc1Cl [Resatorvid] | 0 | 0 | 0
Cc1ccc(Nc2nccc(N(C)c3ccc4c(C)n(C)nc4c3)n2)cc1S(N)(=O)=O [Pazopanib] | 0 | 0 | 0
CN1CCN(c2cc(C(=O)Nc3ccc4c(c3)-c3c(c(C(N)=O)nn3-c3ccc(F)cc3)CC4)c(Cl)cn2)CC1 [PHA 408] | 0 | 0.2 | 0
CNC(=O)[C@@H](NC(=O)[C@H](CC(C)C)[C@H](O)C(=O)NO)C(C)(C)C [Marimastat] | 0.1 | 3.5 | 0
